What was measured:
[1] = target: Cyclooxygenase (Rattus norvegicus) (UniProt P35355+Q63921); assay: Inhibitory activity against Cyclooxygenase (COX) using broken rat […] leukemia cells (RBL-1) at 10 uM; type: cell-based
[2] = target: T1, Prostaglandin G/H synthase 1 (Ovis aries) (UniProt P05979); assay: Inhibitory activity against Cyclooxygenase using sheep seminal vesicle (SSV) enzyme (COX-1) at 10 uM; type: tissue-based
T1 sequence (whole entry): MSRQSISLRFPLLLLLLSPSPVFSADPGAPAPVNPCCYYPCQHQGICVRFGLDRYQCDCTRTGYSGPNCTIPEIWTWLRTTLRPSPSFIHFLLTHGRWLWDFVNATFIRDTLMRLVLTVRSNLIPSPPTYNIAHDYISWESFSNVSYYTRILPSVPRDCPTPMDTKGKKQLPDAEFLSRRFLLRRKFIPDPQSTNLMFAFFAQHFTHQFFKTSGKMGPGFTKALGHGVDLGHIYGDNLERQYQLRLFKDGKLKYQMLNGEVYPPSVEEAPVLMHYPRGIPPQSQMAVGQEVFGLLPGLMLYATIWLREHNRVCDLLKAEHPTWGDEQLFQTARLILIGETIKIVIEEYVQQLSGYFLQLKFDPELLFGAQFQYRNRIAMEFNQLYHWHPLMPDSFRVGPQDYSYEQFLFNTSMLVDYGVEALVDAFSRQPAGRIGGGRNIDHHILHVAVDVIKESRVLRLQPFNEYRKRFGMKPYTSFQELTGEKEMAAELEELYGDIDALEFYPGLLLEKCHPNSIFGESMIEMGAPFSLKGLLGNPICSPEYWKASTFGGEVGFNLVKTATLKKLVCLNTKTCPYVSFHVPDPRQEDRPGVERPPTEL

Cyclooxygenase [3] = target: T2, Cyclooxygenase (Rattus norvegicus, UniProt P35355+Q63921); assay: Inhibitory activity against cyclooxygenase (COX) in intact rat […] leukemia cells (RBL-1); type: cell-based
T2 sequence (P35355 whole entry): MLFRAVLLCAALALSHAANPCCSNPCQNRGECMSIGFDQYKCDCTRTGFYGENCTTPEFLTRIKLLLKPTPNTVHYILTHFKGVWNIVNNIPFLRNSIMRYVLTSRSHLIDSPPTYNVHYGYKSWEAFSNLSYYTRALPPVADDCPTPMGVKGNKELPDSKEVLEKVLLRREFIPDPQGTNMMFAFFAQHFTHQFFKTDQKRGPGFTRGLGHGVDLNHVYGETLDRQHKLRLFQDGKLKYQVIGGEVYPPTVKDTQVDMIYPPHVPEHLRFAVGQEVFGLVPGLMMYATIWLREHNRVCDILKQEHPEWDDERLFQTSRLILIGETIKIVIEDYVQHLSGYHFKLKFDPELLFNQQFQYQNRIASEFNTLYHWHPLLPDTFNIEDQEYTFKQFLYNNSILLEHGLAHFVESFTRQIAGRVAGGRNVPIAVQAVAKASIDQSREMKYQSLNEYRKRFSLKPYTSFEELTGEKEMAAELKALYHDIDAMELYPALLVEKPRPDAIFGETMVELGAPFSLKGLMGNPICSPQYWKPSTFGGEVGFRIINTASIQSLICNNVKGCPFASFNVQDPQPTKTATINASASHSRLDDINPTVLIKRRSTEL
T2 sequence (Q63921 whole entry): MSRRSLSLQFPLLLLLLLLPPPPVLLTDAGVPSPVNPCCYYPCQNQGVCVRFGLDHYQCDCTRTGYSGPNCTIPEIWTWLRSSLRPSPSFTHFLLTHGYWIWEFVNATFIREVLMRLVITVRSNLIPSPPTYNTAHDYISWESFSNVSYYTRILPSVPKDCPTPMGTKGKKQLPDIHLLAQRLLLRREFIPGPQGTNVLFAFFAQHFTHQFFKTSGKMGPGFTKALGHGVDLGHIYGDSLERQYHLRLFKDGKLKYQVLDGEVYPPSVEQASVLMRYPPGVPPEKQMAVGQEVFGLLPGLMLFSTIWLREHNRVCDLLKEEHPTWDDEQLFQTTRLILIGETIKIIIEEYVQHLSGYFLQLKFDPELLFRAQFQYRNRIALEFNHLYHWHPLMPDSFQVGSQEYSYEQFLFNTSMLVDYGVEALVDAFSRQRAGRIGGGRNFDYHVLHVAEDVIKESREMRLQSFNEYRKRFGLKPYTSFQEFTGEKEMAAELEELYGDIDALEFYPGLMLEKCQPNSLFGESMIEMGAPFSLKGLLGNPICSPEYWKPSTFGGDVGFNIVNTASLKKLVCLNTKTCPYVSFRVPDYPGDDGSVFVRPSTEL

[4] = target: T3, Polyunsaturated fatty acid 5-lipoxygenase (Rattus norvegicus) (UniProt P12527); assay: Inhibitory activity against 5-lipoxygenase (5-LO) using broken rat […] leukemia cells (RBL-1) at 10 uM; type: cell-based
T3 sequence (whole entry): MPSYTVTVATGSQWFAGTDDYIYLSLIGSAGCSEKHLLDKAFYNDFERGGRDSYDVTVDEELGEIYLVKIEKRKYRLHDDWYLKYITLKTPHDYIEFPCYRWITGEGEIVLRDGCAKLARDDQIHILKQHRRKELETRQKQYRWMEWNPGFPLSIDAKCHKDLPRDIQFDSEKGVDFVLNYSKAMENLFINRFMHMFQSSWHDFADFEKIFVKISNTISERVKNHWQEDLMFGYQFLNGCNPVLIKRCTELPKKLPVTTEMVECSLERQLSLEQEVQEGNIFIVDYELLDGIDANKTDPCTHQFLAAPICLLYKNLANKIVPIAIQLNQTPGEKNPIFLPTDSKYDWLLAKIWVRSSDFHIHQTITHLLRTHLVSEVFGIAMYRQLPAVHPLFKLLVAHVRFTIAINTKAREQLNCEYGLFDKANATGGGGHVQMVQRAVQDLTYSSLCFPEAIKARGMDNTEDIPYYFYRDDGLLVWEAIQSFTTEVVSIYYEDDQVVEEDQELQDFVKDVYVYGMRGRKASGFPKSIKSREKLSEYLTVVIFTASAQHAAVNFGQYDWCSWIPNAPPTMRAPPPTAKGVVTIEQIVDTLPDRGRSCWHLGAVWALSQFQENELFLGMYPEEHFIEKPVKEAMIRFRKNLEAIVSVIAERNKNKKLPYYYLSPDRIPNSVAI

Cyclooxygenase [5] = target: T2, Cyclooxygenase; assay: Inhibitory activity against Cyclooxygenase (COX) using broken rat […] leukemia cells (RBL-1); type: cell-based
[6] = target: T3, Polyunsaturated fatty acid 5-lipoxygenase (Rattus norvegicus); assay: Inhibitory activity against 5-lipoxygenase (5-LO) using broken rat […] leukemia cells (RBL-1)at 10 uM; type: cell-based
[7] = target: T1, Prostaglandin G/H synthase 1 (Ovis aries); assay: Inhibitory activity against Cyclooxygenase using sheep seminal vesicle (SSV) enzyme (COX-1)at 10 uM; type: tissue-based

| inhibition [1] [%] | inhibition [2] [%] | IC50 (Cyclooxygenase [3]) [µM] | inhibition [4] [%] | IC50 (Cyclooxygenase [5]) [µM] | inhibition [6] [%] | inhibition [7] [%] | Structure (SMILES) |
| --- | --- | --- | --- | --- | --- | --- | --- |
| 0 | 9 |  |  |  |  |  | COc1ccc(-n2nc(C#CCN(O)C(N)=O)cc2-c2ccc(Cl)cc2)cc1 |
|  | 74 | 0.28 |  |  | 100 |  | COC(=O)N(O)CC#Cc1cc(-c2ccc(C)cc2)n(-c2ccc(OC)cc2)n1 |
|  |  |  |  |  | 82 | 14 | CCCNC(=O)N(O)C(C)C#Cc1cc(-c2ccc(Cl)cc2)n(-c2ccc(OC)cc2)n1 (stereo unspecified) |
|  |  | 1.4 |  | 9.4 |  | 10 | COc1ccc(-n2nc(C#CC(C)N(O)C(N)=O)cc2-c2ccc(C)cc2)cc1 (stereo unspecified) |
| 0 |  | 6.2 |  |  |  |  | COc1ccc(-n2nc(C#CC(C)N(O)C(N)=O)cc2-c2ccc(Cl)cc2)cc1 (stereo unspecified) |
| 84 |  | 0.29 | 77 |  |  |  | COC(=O)N(O)C(C)C#Cc1cc(-c2ccc(Cl)cc2)n(-c2ccc(OC)cc2)n1 (stereo unspecified) |
|  |  | 70.4 |  |  | 91 | 0 | CCC(C#Cc1cc(-c2ccc(Cl)cc2)n(-c2ccc(OC)cc2)n1)N(O)C(N)=O (stereo unspecified) |
|  | 17 | 5.5 |  |  | 89 |  | COc1ccc(-n2nc(C#CCN(O)C(=O)c3ccncc3)cc2-c2ccc(C)cc2)cc1 |
|  | 22 | 2.1 |  | 15.9 |  |  | CCC(C#Cc1cc(-c2ccc(C)cc2)n(-c2ccc(OC)cc2)n1)N(O)C(N)=O (stereo unspecified) |
|  | 79 | 0.06 |  |  | 100 |  | CCC(=O)N(O)CC#Cc1cc(-c2ccc(C)cc2)n(-c2ccc(OC)cc2)n1 |
|  | 38 | 14.5 |  |  | 90 |  | COc1ccc(-n2nc(C#CC(C(C)C)N(O)C(N)=O)cc2-c2ccc(Cl)cc2)cc1 (stereo unspecified) |

More lines, now with the values behind:

| Structure (SMILES) | inhibition [1] [%] | inhibition [2] [%] | IC50 (Cyclooxygenase [3]) [µM] | inhibition [4] [%] | IC50 (Cyclooxygenase [5]) [µM] | inhibition [6] [%] | inhibition [7] [%] |
| --- | --- | --- | --- | --- | --- | --- | --- |
| CCOC(=O)CCC(=O)N(O)C(C)C#Cc1cc(-c2ccc(CC)cc2)n(-c2ccc(OC)cc2)n1 (stereo unspecified) | 52 | 3 | 14 | 97 |  |  |  |
| COc1ccc(-n2nc(C#CC(C)N(O)C(=O)c3cccnc3)cc2-c2ccc(C)cc2)cc1 (stereo unspecified) | 54 |  | 11.5 | 88 |  |  |  |
| CCc1ccc(-c2cc(C#CC(C)N(O)C(C)=O)nn2-c2ccc(OC)cc2)cc1 (stereo unspecified) |  |  | 0.34 |  | 0.06 |  |  |
| COc1ccc(-n2nc(C#CCN(O)C(=O)c3ccccc3)cc2-c2ccc(C)cc2)cc1 |  | 52 |  |  |  | 100 |  |
| COc1ccc(-n2nc(C#CC(C)N(O)C(=O)c3ccccc3)cc2-c2ccc(Cl)cc2)cc1 (stereo unspecified) |  | 5 | 5.5 |  | 14.9 |  |  |
| CCOC(=O)C(=O)N(O)C(C)C#Cc1cc(-c2ccc(C)cc2)n(-c2ccc(OC)cc2)n1 (stereo unspecified) |  | 66 | 3.4 |  |  | 71 |  |
| CCC(C#Cc1cc(-c2ccc(C)cc2)n(-c2ccc(OC)cc2)n1)N(O)C(C)=O (stereo unspecified) |  |  | 0.22 |  | 0.01 |  |  |
| COc1ccc(-n2nc(C#CC(C)N(O)C(=O)N3CCCCC3)cc2-c2ccc(Cl)cc2)cc1 (stereo unspecified) |  |  |  |  |  | 76 | 44 |
| CCc1ccc(-c2cc(C#CC(C)N(O)C(=O)OC)nn2-c2ccc(OC)cc2)cc1 (stereo unspecified) |  | 21 | 0.75 |  |  | 78 |  |
| COC(=O)N(O)C(C)C#Cc1cc(-c2ccc(C)cc2)n(-c2ccc(OC)cc2)n1 (stereo unspecified) |  |  | 0.49 |  | 0.14 |  |  |
| COc1ccc(-n2nc(C#CC(C)N(O)C(C)=O)cc2-c2ccc(C)cc2)cc1 (stereo unspecified) |  |  | 0.11 |  | 0.01 |  |  |
| COc1ccc(-n2nc(C#CC(C)N(O)C(=O)c3ccco3)cc2-c2ccc(C)cc2)cc1 (stereo unspecified) | 61 |  |  | 70 |  |  |  |
| CCOC(=O)CCC(=O)N(O)C(C)C#Cc1cc(-c2ccc(C)cc2)n(-c2ccc(OC)cc2)n1 (stereo unspecified) |  |  | 10 |  |  | 97 |  |
| COc1ccc(-n2nc(C#CC(C)N(O)C(=O)N3CCOCC3)cc2-c2ccc(Cl)cc2)cc1 (stereo unspecified) |  |  | 1.6 |  |  |  | 14 |
| COc1ccc(-n2nc(C#CC(C)N(O)C(=O)C(C)C)cc2-c2ccc(C)cc2)cc1 (stereo unspecified) |  |  | 0.09 |  | 0.04 |  |  |
| CCc1ccc(-c2cc(C#CC(C)N(O)C(=O)C(C)C)nn2-c2ccc(OC)cc2)cc1 (stereo unspecified) |  |  | 0.18 | 93 |  |  |  |
| COc1ccc(-n2nc(C#CC(C(C)C)N(O)C(N)=O)cc2-c2ccc(C)cc2)cc1 (stereo unspecified) |  | 29 | 1.2 |  | 4.6 |  |  |
| CCc1ccc(-c2cc(C#CC(C)N(O)C(=O)CCl)nn2-c2ccc(OC)cc2)cc1 (stereo unspecified) | 86 |  | 1.7 |  |  | 100 |  |
| COc1ccc(-n2nc(C#CC(C)N(O)C(=O)C(F)(F)F)cc2-c2ccc(C)cc2)cc1 (stereo unspecified) |  |  | 0.19 |  | 0.05 |  |  |
